Experimental data from BindingDB's records for doi:10.1016/s0960-894x(99)00565-x (Dupont Pharmaceuticals, 1999).
pIC50: −log10 of the molar value.

Target: T1, Gag-Pol polyprotein [588-1027]/[588-1147] (Human immunodeficiency virus 1, UniProt P04585)
T1 construct: 588-1027; 588-1147
Assay: HIV-1 RT Assay
Details: pH 8.2; 37 °C

| SMILES | pIC50 |
| --- | --- |
| CC(=O)Nc1ccc2c(c1)C(C#CC(C)C)(C(F)(F)F)OC(=O)N2 (configuration not stated) | < 5.70 |
| CC(=O)Nc1ccc2c(c1)C(C#CC1CC1)(C(F)(F)F)OC(=O)N2 (configuration not stated) | < 5.70 |
